Laboratory results taken from publication PMC8820820, “Feasibility and safety of targeting mitochondria for cancer therapy – preclinical characterization of gamitrinib, a first-in-class, mitochondriaL-targeted small molecule Hsp90 inhibitor” (Cancer Biology & Therapy, 2022).

Tests used:
[1] = tested on: Sprague-Dawley rats; assay: Toxicity in Sprague-Dawley rats; assay type: in vivo; settings: for reduction in mean body weights: male rats, fully recoverable, not adverse
Experimental: Ninety-six male and female Sprague-Dawley rats (6–7 weeks old) were received from Charles River Laboratories (Raleigh, NC) catheterized via a femoral vein prior to arrival. Animals were acclimated in individual stainless-steel cages with access to water and Certified Rodent Diet #2014 C (Envigo RMS) ad libitum for 6 d prior to study initiation. Environmental controls were set to maintain a temperature range of 20 to 26°C, a relative humidity range of 30 to 70%, eight or greater air changes/h, and a 12-h light/dark cycle. Animals were infused with sterile isotonic (0.9%) saline for a minimum of 4 d (0.20 mL/h for males or 0.15 mL/h for females) during the predose phase. At initiation of dosing, animals were 8 to 9 weeks old, and body weights ranged from 283 to 341 g for males and 188 to 238 g for females. Gamitrinib formulated as indicated above was administered by IV infusion on d 4, 8, 11, 15, 18, 22, 25, and 29 of the dosing phase at 1, 10, 25 mg/kg/dose and dose volume of 5 mL/kg. The vehicle control administered with the same schedule contained 2.5% DMSO, 0.125% polysorbate 80, 0.031% lecithin, 1.25% sucrose and 4.375% dextrose. Animals were checked twice daily throughout the duration of the study for mortality, abnormalities, and signs of pain or distress. Detailed observations were conducted for each animal up to two times during the predose phase and for each toxicity animal prior to dosing on d 1, 8, 15, 22, and 29 of the dosing phase and on d 1, 7, and 14 of the recovery phase. Blood samples were collected on d. 1, 4 and 29 of the dosing phase 5 min, 1 h and 24 h post-dose, maintained on chilled cryoracks and centrifuged within 1 h of collection. Tissue samples harvested from each animal were embedded in paraffin, sectioned, and slides were prepared and stained with hematoxylin and eosin.

[2] = molecular target: T1, CYP2B6 (Homo sapiens, UniProt P20813); settings: microsomes
T1 sequence (P20813 1-491): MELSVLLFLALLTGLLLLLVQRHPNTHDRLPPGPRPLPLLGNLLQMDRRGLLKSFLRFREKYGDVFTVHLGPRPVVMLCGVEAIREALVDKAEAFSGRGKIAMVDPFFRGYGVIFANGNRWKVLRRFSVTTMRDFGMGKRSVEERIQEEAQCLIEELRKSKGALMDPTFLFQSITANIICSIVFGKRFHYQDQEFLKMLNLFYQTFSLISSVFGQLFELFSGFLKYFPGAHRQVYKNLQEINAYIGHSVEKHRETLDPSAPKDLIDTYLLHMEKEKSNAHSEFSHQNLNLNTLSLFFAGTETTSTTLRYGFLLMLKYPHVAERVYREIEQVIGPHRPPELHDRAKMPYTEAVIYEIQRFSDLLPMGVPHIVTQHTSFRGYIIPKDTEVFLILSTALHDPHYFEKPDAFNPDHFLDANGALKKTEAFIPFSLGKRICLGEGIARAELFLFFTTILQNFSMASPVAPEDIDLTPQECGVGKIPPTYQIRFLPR
Experimental: CYP inhibition in liver microsomes. […] Samples were analyzed for metabolite formation by LC-MS/MS. The results were expressed using the peak area ratio of analyte to internal standard, based on the calibration curves.
Where Range=fitted uninhibited value, s=slope factor, x=inhibitor concentration, y=% control activity.

[3] = molecular target: T2, Kv4.3/KChIP2 (Homo sapiens, UniProt Q9UK17); assay: Ion channel screening; assay type: cell-based; settings: 10 µM
T2 sequence (Q9UK17 1-655): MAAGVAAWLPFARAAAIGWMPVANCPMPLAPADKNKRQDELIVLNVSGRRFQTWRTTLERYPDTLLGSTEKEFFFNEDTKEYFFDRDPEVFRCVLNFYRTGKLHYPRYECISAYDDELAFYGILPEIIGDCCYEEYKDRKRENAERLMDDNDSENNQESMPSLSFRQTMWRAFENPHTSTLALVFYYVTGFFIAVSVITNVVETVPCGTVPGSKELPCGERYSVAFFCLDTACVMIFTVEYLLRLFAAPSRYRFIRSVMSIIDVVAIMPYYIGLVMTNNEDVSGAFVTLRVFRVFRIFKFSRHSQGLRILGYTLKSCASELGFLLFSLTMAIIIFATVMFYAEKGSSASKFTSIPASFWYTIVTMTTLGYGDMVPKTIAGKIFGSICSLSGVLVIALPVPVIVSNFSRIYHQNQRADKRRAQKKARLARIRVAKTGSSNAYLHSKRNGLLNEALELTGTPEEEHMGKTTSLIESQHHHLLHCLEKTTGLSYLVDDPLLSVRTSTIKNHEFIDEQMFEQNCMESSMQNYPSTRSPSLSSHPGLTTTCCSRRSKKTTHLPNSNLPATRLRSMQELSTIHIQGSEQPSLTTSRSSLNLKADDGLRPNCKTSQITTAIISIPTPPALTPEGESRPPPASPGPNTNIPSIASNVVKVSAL
T2 sequence (Q9NS61 1-270 partner): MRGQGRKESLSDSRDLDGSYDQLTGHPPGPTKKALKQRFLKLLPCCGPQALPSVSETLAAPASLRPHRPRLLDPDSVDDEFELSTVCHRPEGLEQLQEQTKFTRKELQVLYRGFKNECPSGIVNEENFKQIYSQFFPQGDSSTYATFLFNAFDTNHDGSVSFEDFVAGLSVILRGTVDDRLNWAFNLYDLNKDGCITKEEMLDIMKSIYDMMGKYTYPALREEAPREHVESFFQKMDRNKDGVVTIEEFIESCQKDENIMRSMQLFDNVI
Description: (§1) Ion channel screening. […] The parameters measured were the maximum inward current evoked on stepping to -20 mV from the 1st and 26th pulse. Human Kv4.3/KChIP2 currents were evoked from a holding potential of -80 mV by a series of four 500 msec pulses to 0 mV using a 1000 msec interval between pulses. The parameter measured was the amplitude of the outward current 50 msec after the onset of the 4th voltage step to 0 mV. […] Human Kv1.5 currents were evoked by a single pulse from a holding potential of -80 mV to a potential of 0 mV for 4 sec before returning to -80 mV. The parameters measured were the maximum amplitude of outward currents evoked at the beginning of the voltage pulse and at the end of the voltage step from -80 mV to 0 mV. Human KCNQ1/minK currents were evoked by a single pulse delivered from a holding potential of -80 mV to +60 mV for 4 sec before returning to -80 mV. The parameter measured was the maximum outward current evoked on stepping to +60 mV from the holding potential of -80 mV. hERG currents were evoked by a three-pulse protocol where voltage was first stepped to +40 mV for two sec from a holding potential of –80 mV to inactivate hERG channels. […] The parameter measured was the maximum inward current evoked upon stepping to -110 mV from the holding potential of -30 mV. […]

[4] = molecular target: Kv1.5 (Homo sapiens, UniProt P22460); assay: Ion channel screening; assay type: cell-based; settings: 10 µM
Kv1.5, sequence (P22460 whole entry): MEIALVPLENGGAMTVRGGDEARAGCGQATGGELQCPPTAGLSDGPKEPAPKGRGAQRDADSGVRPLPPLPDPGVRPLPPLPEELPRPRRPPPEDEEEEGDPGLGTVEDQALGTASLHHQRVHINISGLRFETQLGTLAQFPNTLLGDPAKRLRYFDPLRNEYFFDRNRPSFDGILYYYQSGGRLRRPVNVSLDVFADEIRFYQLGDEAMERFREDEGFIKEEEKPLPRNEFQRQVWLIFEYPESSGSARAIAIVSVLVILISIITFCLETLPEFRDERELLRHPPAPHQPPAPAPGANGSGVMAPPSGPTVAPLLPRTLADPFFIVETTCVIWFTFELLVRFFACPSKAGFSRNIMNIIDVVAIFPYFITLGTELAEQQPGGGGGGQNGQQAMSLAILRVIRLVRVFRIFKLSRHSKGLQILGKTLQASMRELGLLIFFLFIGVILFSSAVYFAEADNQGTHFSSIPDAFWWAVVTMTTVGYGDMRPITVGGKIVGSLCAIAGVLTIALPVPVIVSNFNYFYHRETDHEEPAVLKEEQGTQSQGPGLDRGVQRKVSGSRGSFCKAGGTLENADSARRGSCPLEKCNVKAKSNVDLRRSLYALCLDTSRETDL
Description: as §1

[5] = Phase I, cytochrome P450-mediated human liver microsome metabolism; settings: 0.5 µM, human liver microsomes
[6] = molecular target: KCNQ1/mink (Homo sapiens, UniProt P51787); assay: Ion channel screening; assay type: cell-based; settings: 10 µM
KCNQ1/mink, sequence (P51787 whole entry): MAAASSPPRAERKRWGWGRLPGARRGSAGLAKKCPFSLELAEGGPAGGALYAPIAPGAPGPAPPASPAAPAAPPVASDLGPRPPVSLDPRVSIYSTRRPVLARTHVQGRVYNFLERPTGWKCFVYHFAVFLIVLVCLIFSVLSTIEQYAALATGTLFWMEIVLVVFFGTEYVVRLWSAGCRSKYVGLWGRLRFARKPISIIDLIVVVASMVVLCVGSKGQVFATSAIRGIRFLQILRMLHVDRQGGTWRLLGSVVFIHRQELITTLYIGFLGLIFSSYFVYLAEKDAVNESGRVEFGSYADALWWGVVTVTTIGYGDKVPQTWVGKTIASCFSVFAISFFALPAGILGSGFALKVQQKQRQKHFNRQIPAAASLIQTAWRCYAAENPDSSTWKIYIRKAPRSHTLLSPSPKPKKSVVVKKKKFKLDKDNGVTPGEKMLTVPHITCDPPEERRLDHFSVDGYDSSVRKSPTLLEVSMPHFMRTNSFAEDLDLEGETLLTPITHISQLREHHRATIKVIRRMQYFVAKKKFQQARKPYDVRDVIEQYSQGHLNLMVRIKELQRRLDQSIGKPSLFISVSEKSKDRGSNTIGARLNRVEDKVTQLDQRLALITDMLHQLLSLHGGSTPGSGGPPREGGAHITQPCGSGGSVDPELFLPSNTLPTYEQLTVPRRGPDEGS
Description: as §1

COC1C=CC=C(C)C(=O)NC2=CC(=O)C(NCCCCCC[P+](c3ccccc3)(c3ccccc3)c3ccccc3)=C(CC(C)CC(OC)C(O)C(C)C=C(C)C1OC(N)=O)C2=O.F[P-](F)(F)(F)(F)F (stereo not drawn) [Gamitrinib]
reduction in mean body weights ([1]; 10 mg/kg/dose): −5.5%
reduction in mean body weights ([1]; 25 mg/kg/dose): −5.7%
urinalysis and ophthalmic findings ([1]; rats): No effects on urinalysis or ophthalmic changes
serum urea nitrogen (UN) and creatinine concentrations ([1]; rats, 25 mg/kg/dose): Minimally to mildly higher
kidney microscopic findings ([1]; rats, 25 mg/kg/dose, persisted to end of recovery): tubular degeneration/regeneration
non-observed adverse effect level (NOAEL) ([1]; rats, IV twice weekly for 29 d): 1 mg/kg/dose
severely toxic dose in 10% of the animals (STD 10) ([1]; rats, IV twice weekly for 29 d): 10 mg/kg/dose
alterations in clinical chemistry parameters ([1]; rats, highest dose level tested): mildly to moderately higher neutrophil, and platelet (Plts) counts, minimally prolonged partial thromboplastin time (PT), lower albumin, higher globulin, and alkaline phosphatase concentrations
Gamitrinib-related clinical observations ([1]; rats, ≥10 mg/kg/dose): inguinal swelling, piloerection, hypoactivity, and sensitivity to touch at the infusion site
microscopic findings at infusion site ([1]; rats, ≥10 mg/kg/dose, both sexes, persisted through recovery): mixed cell inflammation at the catheter/infusion site
Gamitrinib-related mortality ([1]; toxicity animals, 10 mg/kg/dose): one male
Gamitrinib-related mortality ([1]; toxicity animals, 25 mg/kg/dose, severe inflammation and marked hemorrhage at infusion site): two males, one female
Gamitrinib-related mortality ([1]; toxicokinetic animals, 10 mg/kg/dose): two toxicokinetic females
Gamitrinib-related mortality ([1]; toxicokinetic animals, 25 mg/kg/dose): one toxicokinetic female
IC50 [2]: 16 µM
inhibition of Kv4.3/KChIP2 currents [3]: 6.8 ± 2.2%
inhibition of Kv1.5 currents [4]: 6.6 ± 1.3%
elimination rate constant (k) [5]: 0.041
half-life (t½) [5]: 16.7 min
intrinsic clearance (CLint) [5]: 3.30 mL/min/g
inhibition of KCNQ1/mink currents [6]: 22.5 ± 1.1%
